Patent US9771563B2, “Chemical approaches for generation of induced pluripotent stem cells” (The Scripps Research Institute, priority 2008, dated 2017)

Assays:
[1] = tested on: primary OG2 neural progenitor cells; test: iPS cell induction from neural progenitor cells after retroviral transduction; assay type: cell-based, mouse
Protocol: The reporter neural progenitor cells were generated using a well established protocol by differentiating the Oct4-GiP mESCs grown in monolayer on gelatin in a chemically defined medium/CDM condition in the absence of serum and other growth factors/cytokines at low cell density for eight days, followed by neurophere formation and subsequent serial passaging in single cells in neural cell expansion media supplemented with 10 ng/ml of bFGF and EGF in monolayer for over six passages/24 days. The resulting neural progenitor cells were homogenous by cell morphology and neural marker expression, and were confirmed to be GFP negative and puromycin sensitive. Such neural progenitor cells plated in monolayer in conventional mESC growth media were transduced with combinations of four, three, or two of the four factors, followed by treating the transduced cells with individual small molecules from a small known drug collection in a typical 6-well format. The compound treatment and culture were continued for additional ten days before puromycin was added. The number of green and puro-resistant colonies was counted at day 14. In comparison to the only four-gene transduced neural cells as the positive control, compound conditions that generated more green colonies than the corresponding gene-only conditions were picked as primary hits. To further confirm these primary hit conditions, we chose to use a late passage of mouse CNS neural progenitor cells (Do, J. T. et al., Stem Cells 25, 1013-1020 (2007)) that were derived from fetal brain of OG2^+/−/ROSA26^+/− transgenic mice (which contain an Oct4-GFP reporter) and expanded in monolayer under the same neural CDM condition as the above with 10 ng/ml of bFGF and EGF. Such cells truly from a non-pluripotent tissue would be devoid of concerns of any contaminating ES cell in the above screening system, which is highly unlikely with all appropriate controls. Similar culture conditions and reprogramming assays were performed using the OG2 neural progenitor cells except that puromycin was not used and green colonies were picked out and characterized by staining of Nanog, SSEA1 and ALP.
mESC-derived or primary OG2 mouse neural progenitor cells were plated into Matrigel (1:50, BD Biosciences) coated 6-well plates at 3.5×10^4 cells/well in the neural progenitor cell expansion media. After one day these cells were transduced with retrovirus for overnight, and the medium was changed into the mESC growth media [DMEM, 5% FBS, 10% KSR, 1× non-essential amino acids (Gibco), 2 mM L-glutamine (Gibco), 0.1 mM β-mercaptoethanol (Gibco) and 10^3 unit/ml LIF (Chemicon)] with or without BIX01294 (0.5-1 μM). GFP-positive iPS cell colonies appeared after 9-14 days, and were picked out and expanded on MEF feeder cells with the mESC growth media.

[2] = tested on: mouse embryonic fibroblasts (129 or OG2 MEFs); test: Screen for iPSC generation from MEFs transduced with Oct4/Klf4 (OK); assay type: cell-based
Protocol: Unmodified MEFs derived from E13-14 embryos of the 129 mice were used for the initial screen. MEFs were plated on Matrigel at 3.5×10^4 cells/well of a 6-well plate and transduced with OK (retroviral vectors expressing Oct4 and Klf4) alone. Within 14-21 days, treated cells were assessed for the appearance of colonies that had the characteristic embryonic stem cell (ESC) colony morphology and were positive for the pluripotency marker alkaline phosphatase (ALP). Such OK-transduced cells generated only a few small non-compact colonies, which were weakly positive for ALP expression. These colonies initially appeared within 21 days after viral transduction and were difficult to expand. Therefore, such assay system offered a clean background for the identification of small molecules having desirable reprogramming inducing activity. Using this system, compounds from a library of around 2000 known small molecules (see Experimental Procedures below) were screened and were identified as hits when they induced the appearance of ESC colonies that were strongly positive for ALP within 14-21 days after treatment. This image-based method provided a more accurate assessment of reprogramming as compared to homogenous reporter-based assay. BIX appeared to have the strongest effect with reproducible induction of more than 1-2 compact ESC-like colonies with high ALP expression. We observed that when MEFs were treated with BIX after OK viral transduction, compact colonies with strong ALP expression could be readily detected within approximately 14-21 days. These cells were also positive for Nanog, Oct4 and SSEA-1 expression. […] However, the reprogramming efficiency in MEFs transduced with OK and treated with BIX was still low, about 2 colonies/3.5×10^4 cells, in comparison to the four factor-induced reprogramming of MEFs or the OK/BIX NPC reprogramming (Shi, Y. et al., Cell Stem Cell, 2:525-528 (2008)). Therefore, we conducted a second screen using a similar protocol, but where BIX was added to the basal media after OK viral transduction. This provided a more permissive platform to identify new small molecules that could further improve reprogramming efficiency. More importantly, this second screen could facilitate discovery of small molecules that impact reprogramming in a more specific manner, for example by acting on signal transduction pathways rather than on histone or DNA modifying enzymes. In this second screen, we again assayed the library of around 2000 known small molecules (see Experimental Procedures), and confirmed two compounds that were able to act in a synergistic manner with BIX to improve reprogramming based on the criteria of the screen. […] Therefore, RG108 was not pursued further for this study. Instead, we focused our phenotypic and functional characterization on another small molecule that was identified in the second screen, BayK, an L-calcium channel agonist. […] Therefore, BayK might play a more specific role in the reprogramming process. When 129 MEFs were transduced with empty retrovirus (negative control); no colonies observed. When 129 MEFs were transduced with OK without small molecules; few small flattened colonies with weak ALP expression present. […] When OK-transduced MEFs were treated with BIX in combination with BayK, a significant increase in the number of ALP^+ colonies that closely resemble the mESC morphology could be observed (˜7 colonies) as compared to OK-transduced MEFs treated with BIX alone (˜2 colonies).
Primary 12952/SvPasCrlf (primary screen) or ROSA26^+/−/OG2^+/− (secondary screen) MEFs were plated onto Matrigel (1:50; BD Biosciences, Bedford, Mass.) coated dishes at a density of 3.5×10^4 cells per well of a 6-well plate. Twenty-four hours later, these cells were transduced overnight with defined retroviruses at 37° C., 5% CO2. […] (all products were from Invitrogen, Carlsbad, Calif., except where mentioned). […]

mES R1 cells = test: Proliferation assay; assay type: cell-based, mouse; details: 2 μM BayK, 1 μM BIX; 15, 24, 48 hours; vs DMSO
Protocol: mES R1 cells were plated onto gelatin-coated 6-well plates at a density of 2×10^5 cells/well in complete mES cell media. Upon cell attachment, app. 12 hours, the cells were treated either with DMSO, 1 μM BIX, 2 μM BayK, and a combination of both, in triplicate. At 15, 24 and 48 hours, the cells were detached using trypsin, and counted using a hemocytometer. Trypan blue (Sigma-Aldrich, St. Louis, Mo.) was used for dead cell exclusion.

COc1cc2nc(N3CCCN(C)CC3)nc(NC3CCN(Cc4ccccc4)CC3)c2cc1OC [BIX01294]
appearance of GFP+ iPS cell colonies after transduction and treatment ([1]; OG2 neural progenitor cells transduced with Oct4/Klf4 retroviruses): 12 days | kinetics of reprogramming ([1]; Oct4/Klf4 viral transduction, BIX01294 treatment): didn't significantly shorten the kinetics of reprogramming | reprogramming efficiency ([1]; Oct4/Klf4 viral transduction, BIX01294 treatment (0.5-1 μM)): significantly improve the reprogramming efficiency to or higher than the level of using viral transduction of all four factors | generation of iPS cells in the absence of Oct4 expression ([1]; viral transduction of Klf4, Sox2 and cMyc with simultaneous treatment): can also generate iPS cells | reprogramming efficiency (GFP+ colonies) ([2]; OG2 MEFs transduced with OK, FIG. 3): 2.5±0.7 colonies per 3.5×10^4 cells | number of ALP+ colonies that closely resemble the mESC morphology ([2]; OK-transduced 129 MEFs, 14-21 days): about 2 colonies | proliferation of mES cells (cell number) (mES R1 cells): does not increase the proliferation of mES cells
